Laboratory results published in patent US6977252B1, “Use of 1,4-benzothiazepine derivatives as drugs for overcoming resistance to anticancer drugs” (Noboru Kaneko, priority 1999, dated 2005).
Read-outs that look alike come from different tables or passages of the source.

Assays:
[1] = test system: K562 human promyelocytic leukemia cell line; test: MTT cell growth inhibition by adriamycin with or without compound 1, K562; format: cell-based
Procedure: PC-14 as a human non-small cell lung cancer cell line and PC-14/CDDP as a cisplatin tolerant cell line thereof were used to examine an effect of overcoming each resistance to cisplatin, carboplatin, nedaplatin and taxol. PC-14 and PC-14/CDDP were made into a single cell in BPMI 1640 medium by trypsinization or by using a cell scraper, and prepared a cell suspension of 100 cells per 15 μl. The compound 1 dissolved in dimethyl sulfoxide was added therein to make final concentration of 10 μm, and then the resulting liquid was poured into a 96-perforated plate at 150 μl per well. An anticancer drug was dissolved in sterilized distilled water. The resulting liquid of 150 μl per well was poured into the first row to transfer in turn from the second row to the next rows by 150 μl for each raw so as to form two-fold dilution rows. A group without the cells was prepared as a negative control, and a group without the anticancer drug and the compound I was prepared as a positive control. […] Then, absorbed light of 562–630 nm was determined by using a multiplate reader. […]

[2] = test system: K562/ADM adriamycin resistant cell line; test: MTT cell growth inhibition by adriamycin with or without compound 1, K562/ADM; format: cell-based, human; conditions: for IC50: Homo sapiens, K562, K562/ADM, read-out: 50% cell growth inhibiting concentration (IC50) of adriamycin
Procedure: (§1) PC-14 as a human non-small cell lung cancer cell line and PC-14/CDDP as a cisplatin tolerant cell line thereof were used to examine an effect of overcoming each resistance to cisplatin, carboplatin, nedaplatin and taxol. PC-14 and PC-14/CDDP were made into a single cell in BPMI 1640 medium by trypsinization or by using a cell scraper, and prepared a cell suspension of 100 cells per 15 μl. The compound 1 dissolved in dimethyl sulfoxide was added therein to make final concentration of 10 μm, and then the resulting liquid was poured into a 96-perforated plate at 150 μl per well. An anticancer drug was dissolved in sterilized distilled water. The resulting liquid of 150 μl per well was poured into the first row to transfer in turn from the second row to the next rows by 150 μl for each raw so as to form two-fold dilution rows. A group without the cells was prepared as a negative control, and a group without the anticancer drug and the compound I was prepared as a positive control. After culturing at 37° C. under carbon dioxide having a concentration of 5% and saturated vapor for 96 hours, an MTT [3-(4,5-dimethylthiazol-2-yl)-2,5-diphenyltetrazolium bromide] reagent of 20 μl dissolved in D-PBS (−) at a concentration of 5 mg/ml was added to each of the groups, and the resulting liquid was cultured for another 4 hours at 37° C. After the completion of the culture, the entire plate was centrifuged, and the supernatant was removed. Dimethyl sulfoxide of 200 μl was added to dissolve formazan crystal generated by enzyme activities of mitochondria in the cells. Then, absorbed light of 562–630 nm was determined by using a multiplate reader. Given that the average growth rate of the negative control is 0% and the average growth rate of the positive control is 100%, a dose-growth curve was plotted to calculate […] cell growth inhibiting concentration (IC50).
K562 as a human […] cell line and K562/ADM as an adriamycin resistant cell line thereof were used to examine the effect of overcoming the resistance to adriamycin. […]

[3] = test system: GB-1 human glioblastoma cell and U87-GM cell; conditions: GB-1 cell and U87-GM cell; cited from earlier work
[4] = test system: B16a cell and B16a-Pt cell line; conditions: B16a cell and cisplatin-resistant B16a-Pt cell line; cited from earlier work
[5] = test system: PC-14 human non-small cell lung cancer cell line; test: MTT cell growth inhibition by anticancer drug with or without compound 1, PC-14; format: cell-based; conditions: read-out: 50% cell growth inhibiting concentration (IC50) of anticancer drug
Procedure: as §1

[6] = test system: PC-14/CDDP cisplatin tolerant cell line; test: MTT cell growth inhibition by anticancer drug with or without compound 1, PC-14/CDDP; format: cell-based, human; conditions: for IC50: PC-14/CDDP, MTT, read-out: 50% cell growth inhibiting concentration (IC50) of anticancer drug
Procedure: as §1

[7] = test system: PC-14 tumor; test: Tumor growth in nude mice implanted with PC-14; format: in vivo, nude mice BALB/c nu/nu; conditions: for Tumor growth rate GR: 11th
Procedure: (§2) Female nude mice BALB/c nu/nu (6-week-old) were implanted subcutaneously in each back with 2×10^7 of PC-14/CDDP and the parental cell line PC-14 suspended in physiological saline, then the progress of tumor were observed. On the 7th day from the implantation, tumor condition was checked to select and randomize testable individuals not to cause any deviation, and the selected mice were then divided into a control group and a test group. After each tumor volume was determined based on the formula: (tumor short diameter)^2×(tumor long diameter), administration of drug was started on the seventh day.
(§3) The compound 1 was used as a test compound, 1.2 mg of which was dissolved in 0.05 ml of dimethyl sulfoxide, and then combined with 0.95 ml of 5% sorbitol-0.2% citric acid 1 hydrate solution (pH3.3) to make uniform solution.
(§4) Cisplatin was used as an anticancer drug, and was dissolved in distilled water to prepare 1.6 mg/ml solution.
(§5) The administration process is carried out by simultaneous intravenous injections of 0.05 ml of the test compound and 0.05 ml of the anticancer-drug solution once a day on the 7th, 11th, 15th day after the tumor implantation. For the control group, 0.1 ml of physiological saline was administered by intravenous injection, and for the group to be administered only the anticancer drug, 0.05 ml of the anticancer-drug solution and 0.05 ml of physiological saline were administered by intravenous injection. One dose of the test compound was 3 mg/kg, and one dose of the anticancer drug was 4 mg/kg. During the administration of the drug, physical status of the whole body of the mice was observed, and the weight and the long/short lengths of tumor were measured. Tumor growth rate (GR) and effect of inhibiting cancer (lowest T/C) were calculated based on the following formulas, respectively. [formula] [formula]

[8] = test system: PC-14/CDDP tumor; test: Tumor growth in nude mice implanted with PC-14/CDDP; format: in vivo, nude mice BALB/c nu/nu; conditions: for lowest T/C / Tumor growth rate GR: PC-14/CDDP; for Tumor growth rate GR: 11th
Procedure: as §2, §3, §4, §5

[9] = test system: KCP-4 cell isolated from human nasopharyngeal cancer KB cells; conditions: KCP-4 cisplatin-resistance cell; cited from earlier work
[10] = PC-14, with compound 1 (final concentration 10 μm), 96 hours
[11] = PC-14, without compound 1, 96 hours
[12] = with compound 1 (final concentration 10 μm), 96 hours

## COc1cccc2c1C(=O)c1c(O)c3c(c(O)c1C2=O)C[C@@](O)(C(=O)CO)C[C@@H]3O[C@H]1C[C@H](N)[C@H](O)[C@H](C)O1 [adriamycin]
[1]; K562, K562, with compound 1, n = 1, read-out: 50% cell growth inhibiting concentration (IC50) of adriamycin
  IC50: 0.004 µM
[1]; K562, K562, without compound 1, n = 1, read-out: 50% cell growth inhibiting concentration (IC50) of adriamycin
  IC50: 0.008 µM
[2]; with compound 1, n = 1
  IC50: 0.166 µM
[2]; without compound 1, n = 1
  IC50: 1.15 µM

## COC(=O)C1=C(C)NC(C)=C(C(=O)OC2CCCN(Cc3ccccc3)C2)C1c1cccc([N+](=O)[O-])c1 (centres unmarked) [benidipine]
[3]
  drugs that enhance any significant antitumor effect of cisplatin: none

## Clc1ccc(C(c2ccc(Cl)cc2)[n+]2ccn(CC(OCc3ccc(Cl)cc3Cl)c3ccc(Cl)cc3Cl)c2)cc1.[Cl-] (centres unmarked) [calmidazilium]
[4]
  enhancement of antitumor effect of cisplatin: do not exhibit any significant enhanced antitumor effect

## N.N.O=C([O-])C1(C(=O)[O-])CCC1.[Pt+2] [carboplatin]
[5]; [10]
  IC50: 29.5 ± 11.3 µM
[5]; [11]
  IC50: 37.1 ± 10.8 µM
[6]; [12]
  IC50: 26.1 ± 7.78 µM
[6]; without compound 1, 96 hours
  IC50: 143 ± 39.1 µM

## N.N.[Cl][Pt][Cl] [cisplatin]
[5]; [10]
  IC50: 1.77 ± 0.89 µM
[5]; [11]
  IC50: 2.4 ± 1.05 µM
[6]; [12]
  IC50: 2.16 ± 1.12 µM
[6]; without compound 1, 96 hours
  IC50: 18.6 ± 2.83 µM
[7]; 11th day, PC-14, cisplatin 4 mg/kg i.v. with compound 1 3 mg/kg i.v.
  lowest T/C: 9.76%
[7]; 11th day, PC-14, cisplatin 4 mg/kg i.v., without compound 1
  lowest T/C: 13.33%
[7]; 15th day, PC-14, cisplatin 4 mg/kg i.v. with compound 1 3 mg/kg i.v.
  lowest T/C: 6.75%
[7]; 15th day, PC-14, cisplatin 4 mg/kg i.v., without compound 1
  lowest T/C: 10.52%
[7]; PC-14, cisplatin 4 mg/kg i.v. on 7th, 15th day, without compound 1
  Tumor growth rate GR: 874.30%
[7]; PC-14, cisplatin 4 mg/kg i.v. with compound 1 3 mg/kg i.v. on 7th, 15th day
  Tumor growth rate GR: 753.32%
[8]; 11th day, cisplatin 4 mg/kg i.v. with compound 1 3 mg/kg i.v.
  lowest T/C: 9.81%
[8]; 11th day, cisplatin 4 mg/kg i.v., without compound 1
  lowest T/C: 20.64%
[8]; 15th day, cisplatin 4 mg/kg i.v. with compound 1 3 mg/kg i.v.
  lowest T/C: 2.36%
[8]; 15th day, cisplatin 4 mg/kg i.v., without compound 1
  lowest T/C: 8.47%
[8]; cisplatin 4 mg/kg i.v. on 7th, 15th day, without compound 1
  Tumor growth rate GR: 478.43%
[8]; cisplatin 4 mg/kg i.v. with compound 1 3 mg/kg i.v. on 7th, 15th day
  Tumor growth rate GR: 190.52%
[9]
  resistance of KCP-4 cell to cisplatin: about 63 fold

## COc1ccc2c(c1)CN(C(=O)CCN1CCC(Cc3ccccc3)CC1)CCS2 [compound 1, 4-[3-(4-benzylpiperidine-1-yl)propionyl]-7-methoxy-2,3,4,5-tetrahydro-1,4-benzothiazepine]
[6]; cisplatin resistant lung cancer cell line PC-14/CDDP, compound 1 at 10 μm
  effect on resistance and sensitivity to anticancer drugs: shows the effect of reducing the resistance to and increasing the sensitivity to cisplatin, carboplatin, nedaplatin and taxol
[2]; adriamycin resistant cell line K562/ADM
  effect on resistance and sensitivity to adriamycin: shows the effect of reducing the resistance to and increasing the sensitivity to adriamycin
[8]; nude mice with PC-14/CDDP, compound 1 3 mg/kg with cisplatin 4 mg/kg i.v.
  effect of inhibiting tumor growth together with cisplatin: the effect of inhibiting tumor growth in the cisplatin resistant cancer cell line (PC-14/CDDP) was exhibited

## COc1ccc([C@@H]2Sc3ccccc3N(CCN(C)C)C(=O)[C@@H]2OC(C)=O)cc1 [diltiazem]
[4]
  enhancement of antitumor effect of cisplatin: do not exhibit any significant enhanced antitumor effect
[3]
  drugs that enhance any significant antitumor effect of cisplatin: none

## [NH2][Pt]1([NH2])[O]CC(=O)[O]1 [nedaplatin]
[5]; [10]
  IC50: 4.36 ± 1.53 µM
[5]; [11]
  IC50: 7.1 ± 1.53 µM
[6]; [12]
  IC50: 4.16 ± 1.28 µM
[6]; without compound 1, 96 hours
  IC50: 25.9 ± 8.12 µM

## COC(=O)C1=C(C#N)NC(C)=C(C(=O)OC(C)C)C1c1cccc([N+](=O)[O-])c1 (centres unmarked) [nilvadipine]
[3]
  drugs that enhance any significant antitumor effect of cisplatin: none

## CC(=O)O[C@H]1C(=O)[C@@]2(C)[C@H]([C@H](OC(=O)c3ccccc3)[C@]3(O)C[C@H](OC(=O)[C@H](O)[C@@H](NC(=O)c4ccccc4)c4ccccc4)C(C)=C1C3(C)C)[C@]1(OC(C)=O)CO[C@@H]1C[C@@H]2O [taxol]
[5]; Homo sapiens, PC-14, 96 h, PC-14, with compound 1 (final concentration 10 μm), 96 hours
  IC50: 0.000663 µM
[5]; Homo sapiens, PC-14, 96 h, PC-14, without compound 1, 96 hours
  IC50: 0.00113 µM
[6]; Homo sapiens, PC-14, 96 h, with compound 1 (final concentration 10 μm), 96 hours
  IC50: 1.73 µM
[6]; Homo sapiens, PC-14, 96 h, without compound 1, 96 hours
  IC50: 5.29 µM

## CN1CCN(CCCN2c3ccccc3Sc3ccc(C(F)(F)F)cc32)CC1 [trifluoperazine]
[4]
  enhancement of antitumor effect of cisplatin: do not exhibit any significant enhanced antitumor effect

## COc1ccc(CCN(C)CCCC(C#N)(c2ccc(OC)c(OC)c2)C(C)C)cc1OC (centres unmarked) [verapamil]
[4]
  enhancement of antitumor effect of cisplatin: do not exhibit any significant enhanced antitumor effect
[3]
  drugs that enhance any significant antitumor effect of cisplatin: none
